# PMC8237038 (Acta Pharmacologica Sinica, 2021)
# Legend:
# CYP3A [1] = target: T1, CYP3A (Homo sapiens, UniProt P08684); experiment: in vitro; conditions: microsomes
# CYP3A [2] = target: T1, CYP3A; conditions: for inhibitory effects against CYP3A: microsomes
# CYP3A [3] = experiment: in vitro; conditions: human, human liver microsomes, pH 7.4, probe testosterone (6β-hydroxylation)
# [4] = Pharmacokinetic interactions between HEJG and lopinavir in rats; conditions: lopinavir in rat plasma; for AUC(0-inf) / Cmax: male, Sprague-Dawley, rat, plasma, po, 160 mg/kg
# [5] = pH 7.4, Time-dependent inhibition IC50 Preincubation for 3 min
# [6] = pH 7.4, Time-dependent inhibition IC50 Preincubation for 33 min
# [7] = HEJG (3 g/kg, i.g.) + lopinavir (160 mg/kg, i.g.)
# [8] = Water + lopinavir (160 mg/kg, i.g.), control group
# T1 sequence (P08684 2-503): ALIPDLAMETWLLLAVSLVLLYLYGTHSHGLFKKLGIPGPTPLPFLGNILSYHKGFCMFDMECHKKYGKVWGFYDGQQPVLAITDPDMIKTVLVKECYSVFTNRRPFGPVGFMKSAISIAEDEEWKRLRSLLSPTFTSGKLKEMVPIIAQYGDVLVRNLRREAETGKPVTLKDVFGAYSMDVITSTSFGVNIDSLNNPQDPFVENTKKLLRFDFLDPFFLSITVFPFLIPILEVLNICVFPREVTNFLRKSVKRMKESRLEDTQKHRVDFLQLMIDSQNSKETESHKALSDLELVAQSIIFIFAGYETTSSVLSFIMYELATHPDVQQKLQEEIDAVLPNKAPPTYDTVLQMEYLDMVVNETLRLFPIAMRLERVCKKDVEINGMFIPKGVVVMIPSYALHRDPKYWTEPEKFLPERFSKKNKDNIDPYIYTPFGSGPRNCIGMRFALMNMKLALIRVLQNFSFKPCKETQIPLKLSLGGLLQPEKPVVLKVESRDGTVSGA
smiles,measurement,setting,value
O=C(O)/C=C/c1ccc(O)c(O)c1 [Caffeic acid],IC50,CYP3A [1]; [5],> 100 µM
same,IC50,CYP3A [1]; [6],> 100 µM
same,inhibitory effects against CYP3A,CYP3A [2],weak inhibitory effects
O=C(/C=C/c1ccc(O)c(O)c1)O[C@@H]1C[C@](O)(C(=O)O)C[C@@H](O)[C@H]1O [Chlorogenic acid],IC50,CYP3A [1]; [5],> 100 µM
same,IC50,CYP3A [1]; [6],> 100 µM
same,inhibitory effects against CYP3A,CYP3A [2],weak inhibitory effects
COc1cc(O)ccc1/C=C/C(=O)c1ccc(O)cc1 [Echinatin],IC50,"CYP3A [3]; Time-dependent inhibition IC50 Preincubation for 3 min, constituents, HLMs, 3 min preincubation",25.9 ± 3.19 µM
same,IC50,"CYP3A [3]; Time-dependent inhibition IC50 Preincubation for 33 min, constituents, HLMs, 33 min preincubation",8.08 ± 0.56 µM
same,Ratio,"CYP3A [2]; constituents, IC50 3 min / 33 min preincubation",3.20
O=c1c(O)c(-c2ccc(O)cc2)oc2cc(O)cc(O)c12 [Kaempferol],IC50 shift,CYP3A [1]; pH 7.4,2.01
same,IC50,CYP3A [1]; [5],13.1 ± 1.29 µM
same,IC50,CYP3A [1]; [6],6.53 ± 0.31 µM
O=c1c(O)c(-c2ccc(O)c(O)c2)oc2cc(O)cc(O)c12 [Quercetin],IC50,CYP3A [3],3.95 ± 0.31 µM
Cc1cccc(C)c1OCC(=O)N[C@@H](Cc1ccccc1)[C@@H](O)C[C@H](Cc1ccccc1)NC(=O)[C@H](C(C)C)N1CCCNC1=O [lopinavir],t1/2,[4]; [7],2.68 ± 0.45 h
same,AUC(0-inf),[4]; [7],10200 ± 1570 ng·h/mL
same,AUC(0-inf),[4]; [8],4190 ± 131 ng·h/mL
same,Cmax,[4]; [7],1860 ± 215 ng/mL
same,Cmax,[4]; [8],1280 ± 55 ng/mL
